From patent publication US7538241B2, “Hsp90 family protein inhibitors” (Kyowa Hakko Kogyo Co., Ltd., priority 2003, dated 2009)

Each compound was assayed on human mammary cancer-derived KPL-4 cells (assay: Cell growth inhibition test with KPL-4 cells (WST-1)). Conditions: KPL4, 72 hours, read-out: 50% growth inhibition concentration (GI50).
Format: cell-based
Protocol: In a 96-well plate (Nunc), human mammary cancer-derived KPL-4 cells were sown in an amount of 2000 cells/well, and pre-incubated in 10% fetal calf serum (FCS)-containing Dulbecco Modified Eagle Medium (DMEM) (incubation medium) in a 5% carbon dioxide incubator at 37° C. for 24 hours. A dimethylsulfoxide (DMSO) solution of a test compound controlled at 10 mmol/L was stepwise diluted with the incubation medium, and added to each well in a total amount of 100 μL/well, and incubated in the 5% carbon dioxide incubator at 37° C. for 72 hours. After the incubation, WST-1 {4-[3-(4-Iodophenyl)-2-(4-nitrophenyl)-2H-5-tetrazolio]-1,3-benzene disulfonate}-labeled mixture (Rosh Diagnostic) diluted 2-fold with the incubation medium was added thereto in an amount of 20 μL/well, and incubated in the 5% carbon dioxide incubator at 37° C. for 1 hour. Using a microplate spectrophotometer (Biorad's Model 550), the absorbance at 450 nm and 655 nm of each well was measured. The cell growth inhibition activity of the test compound was indicated by the 50% growth inhibition concentration (GI50) thereof. A method of calculating GI50 is described. The absorbance at 655 nm of each well was subtracted from the absorbance at 450 nm thereof to give a value (absorbance difference). The absorbance difference obtained with the cells without being treated with the test compound was taken as 100%, and this was compared with the absorbance difference obtained with the cells treated with the test compound to give the concentration of the compound for 50% cell growth inhibition, and this is referred to as GI50.

GI50, ≤ 50 µM:
CCc1c(O)cc(O)c(-c2ccccc2)c1CC(O)C(O)CO (centres unmarked) [Compound 180, 6-Ethyl-4-phenyl-5-(2,3,4-trihydroxybutyl)benzene-1,3-diol]
CCc1c(O)cc(O)c(-c2ccccc2)c1CCC(O)C(O)CO (centres unmarked) [Compound 181, 6-Ethyl-4-phenyl-5-(3,4,5-trihydroxypentyl)benzene-1,3-diol]
CCc1c(O)cc(O)c(-c2ccccc2)c1CC(O)CO (centres unmarked) [Compound 182, 6-Ethyl-5-(2,3-dihydroxypropyl)-4-phenylbenzene-1,3-diol]
CCc1c(O)cc(O)c(-c2ccccc2)c1CCOC1OC(CO)C(O)C(O)C1O (centres unmarked) [Compound 183, 6-Ethyl-4-phenyl-5-{2-[3,4,5-trihydroxy-6-(hydroxymethyl)tetrahydropyran-2-yloxy]ethyl}benzene-1,3-diol]
CCc1c(O)cc(O)c(-c2ccccc2)c1CCC(O)C(CO)CO (centres unmarked) [Compound 185, 6-Ethyl-5-[3,5-dihydroxy-4-(hydroxymethyl)pentyl]-4-phenylbenzene-1,3-diol]
CCc1c(O)cc(O)c(-c2ccccc2)c1CCOCc1cccnc1 [Compound 188, 6-Ethyl-4-phenyl-5-[2-(pyridin-3-ylmethoxy)ethyl]benzene-1,3-diol]
CCc1c(O)cc(O)c(-c2cccc(OCc3ccccn3)c2)c1CCOCC(O)CO (centres unmarked) [Compound 190, 5-[2-(2,3-Dihydroxypropoxy)ethyl]-6-ethyl-4-[3-(pyridin-2-ylmethyloxy)phenyl]benzene-1,3-diol]
CCc1c(O)cc(O)c(-c2cccc(OCc3cccnc3)c2)c1CCOCC(O)CO (centres unmarked) [Compound 191, 5-[2-(2,3-Dihydroxypropoxy)ethyl]-6-ethyl-4-[3-(pyridin-3-ylmethyloxy)phenyl]benzene-1,3-diol]
CCc1c(O)cc(O)c(-c2cccc(OCc3ccncc3)c2)c1CCOCC(O)CO (centres unmarked) [Compound 192, 5-[2-(2,3-Dihydroxypropoxy)ethyl]-6-ethyl-4-[3-(pyridin-4-ylmethyloxy)phenyl]benzene-1,3-diol]
CCc1c(O)cc(O)c(-c2cccc(OCc3csc(C)n3)c2)c1CCOCC(O)CO (centres unmarked) [Compound 193, 5-[2-(2,3-Dihydroxypropoxy)ethyl]-6-ethyl-4-[3-(2-methyl-1,3-thiazol-4-ylmethyloxy)phenyl]benzene-1,3-diol]
CCc1c(O)cc(O)c(-c2cccc(OCCO)c2)c1CCOCC(O)CO (centres unmarked) [Compound 194, 5-[2-(2,3-Dihydroxypropoxy)ethyl]-6-ethyl-4-[3-(2-hydroxyethoxy)phenyl]benzene-1,3-diol]
CCOC(=O)CCc1ccc(-c2c(O)cc(O)cc2COCc2ccccc2)o1 [Compound 236, Ethyl 3-{5-[6-(benzyloxymethyl)-2,4-dihydroxyphenyl]furan-2-yl}propanoate]
COC(=O)CCc1ccc(-c2c(O)cc(O)cc2C(OC)c2ccccc2)o1 (centres unmarked) [Compound 237, Methyl 3-{5-[2,4-dihydroxy-6-(1-methoxy-1-phenylmethyl)phenyl]furan-2-yl}propanoate]
CCN(CC)C(=O)Cc1c(Br)c(O)cc(O)c1-c1ccco1 [Compound 241, 2-[2-Bromo-6-(furan-2-yl)-3,5-dihydroxyphenyl]-N,N-diethylacetamide]
COc1cc(NC(=O)Cc2c(Br)c(O)cc(O)c2-c2ccco2)cc(OC)c1 [Compound 242, 2-[2-Bromo-6-(furan-2-yl)-3,5-dihydroxyphenyl]-N-(3,5-dimethoxyphenyl)acetamide]
COCCc1c(Br)c(O)cc(O)c1-c1ccco1 [Compound 243, 6-Bromo-4-(furan-2-yl)-5-(2-methoxyethyl)benzene-1,3-diol]
CCc1c(O)cc(O)c(-c2ccco2)c1CCOC [Compound 244, 6-Ethyl-4-(furan-2-yl)-5-(2-methoxyethyl)benzene-1,3-diol]
CCc1c(O)cc(O)c(-c2ccco2)c1CC(=O)N(C)CCOC [Compound 257, 2-[2-Ethyl-6-(furan-2-yl)-3,5-dihydroxyphenyl]-N-(2-methoxyethyl)-N-methylacetamide]
COC(=O)CCc1ccc(-c2c(O)cc(O)cc2CC(=O)OC)o1 [Compound 260, Methyl 3-{5-[2,4-dihydroxy-6-(methoxycarbonylmethyl)phenyl]furan-2-yl}propanoate]
COC(=O)CCc1ccc(-c2c(O)cc(O)c(Br)c2CC(=O)OC)o1 [Compound 267, Methyl 3-{5-[5-bromo-2,4-dihydroxy-6-(methoxycarbonylmethyl)phenyl]furan-2-yl}propanoate]
COC(=O)Cc1cc(O)cc(O)c1-c1ccc2c(c1)OCO2 [Compound 273, Methyl 2-(1,3-benzodioxolan-5-yl)-3,5-dihydroxyphenylacetate]
CCc1cc(-c2n[nH]c3ccc([N+](=O)[O-])cc23)c(O)cc1O [Compound 277, 6-Ethyl-4-(5-nitro-1H-indazol-3-yl)benzene-1,3-diol]
CCc1cc(-c2nc3ccccc3[nH]2)c(O)cc1O [Compound 278, 4-Benzimidazol-2-yl-6-ethylbenzene-1,3-diol]
CCc1cc(-c2nc3ccccc3n2-c2ccccc2)c(O)cc1O [Compound 279, 6-Ethyl-4-(1-phenylbenzimidazol-2-yl)benzene-1,3-diol]
CCc1c(O)cc(O)c(-c2ncc(-c3ccccc3)o2)c1CC(=O)OC [Compound 329, Methyl 2-ethyl-3,5-dihydroxy-6-(5-phenyl-1,3-oxazol-2-yl)phenylacetate]
CCc1c(O)cc(O)c(-c2n[nH]c3cc(OC)ccc23)c1CCOCC(O)CO (centres unmarked) [Compound 330, 5-[2-(2,3-Dihydroxypropoxy)ethyl]-6-ethyl-4-(6-methoxy-1H-indazol-3-yl)benzene-1,3-diol]

The compounds below were run on human chronic myelocytic leukemia-derived K562 cells (assay: Cell growth inhibition test with K562 cells (WST-1)). Conditions: 72 hours, read-out: 50% growth inhibition concentration (GI50).
Format: cell-based
Protocol: In a 96-well plate (Nunc), human chronic myelocytic leukemia-derived K562 cells were sown in an amount of 1500 cells/well, and pre-incubated in 10% FCS-containing Rosewell Park Memorial Institute's Medium (RPMI) 1640 (Nissui) (incubation medium) in a 5% carbon dioxide incubator at 37° C. for 5 hours. Next, a DMSO solution of a test compound controlled at 10 mmol/L was stepwise diluted with the incubation medium, and added to each well in a total amount of 100 μL/well, and further incubated in the 5% carbon dioxide incubator at 37° C. for 72 hours. After the incubation, WST-1-labeled mixture (Rosh Diagnostic) diluted 2-fold with the incubation medium was added thereto in an amount of 20 μL/well, and incubated in the 5% carbon dioxide incubator at 37° C. for 2 hours. Using a microplate spectrophotometer (Biorad's Model 550), the absorbance at 450 nm and 655 nm of each well was measured. The cell growth inhibition activity of the test compound was indicated by the 50% growth inhibition concentration (GI50) thereof, like in Test Example 2.

GI50, ≤ 50 µM:
CCc1c(O)cc(O)c(-c2ccccc2)c1CCC(O)CC(O)CO (centres unmarked) [Compound 170, 6-Ethyl-4-phenyl-5-(3,5,6-trihydroxyhexyl)benzene-1,3-diol]
CCc1c(O)cc(O)c(-c2cccc(OCCN3CCOCC3)c2)c1CCOCC(O)CO (centres unmarked) [Compound 195, 5-[2-(2,3-Dihydroxypropoxy)ethyl]-6-ethyl-4-[3-(2-morpholinoethoxy)phenyl]benzene-1,3-diol]
CCc1c(O)cc(O)c(-c2cccc(OCCN3CCCC3=O)c2)c1CCOCC(O)CO (centres unmarked) [Compound 196, 5-[2-(2,3-Dihydroxypropoxy)ethyl]-6-ethyl-4-{3-[2-(2-oxopyrrolidin-1-yl)ethoxy]phenyl}benzene-1,3-diol]
CCc1c(O)cc(O)c(-c2cccc(N)c2)c1CCOCC(O)CO (centres unmarked) [Compound 197, 4-(3-Aminophenyl)-5-[2-(2,3-dihydroxypropoxy)ethyl]-6-ethylbenzene-1,3-diol]
CCc1c(O)cc(O)c(-c2ccccc2)c1CC(O)(CCCO)CCCO [Compound 199, 6-Ethyl-5-[2,5-dihydroxy-2-(3-hydroxypropyl)pentyl]-4-phenylbenzene-1,3-diol]
CCc1c(O)cc(O)c(-c2ccccc2)c1Cc1ocnc1C(=O)OC [Compound 200, Methyl 5-[(2-ethyl-3,5-dihydroxy-6-phenylphenyl)methyl]-1,3-oxazole-4-carboxylate]
